“And” between values parts separate entries of the source, which are not always exact repeats. Identical values can stand only once. Counter-ions that a name gives are not always drawn. Like-named read-outs stand apart in the source and are kept apart here. One block for each compound: values may come before it.
Key:
[1] = Systemic exposure and pharmacokinetics after single oral gavage dose of 200 mg/kg in fasted male SD rats; format: in vivo, Sprague Dawley (SD) rats; details: for Fold difference in plasma concentration compared to micronized free-base form: 30 hours post-dose; for Fold difference in plasma concentration compared to micronized free-base form / Increase of systemic drug exposure in AUC0-t compared with micro MBX-2982 (free base): male SD rats; for Increase of systemic drug exposure in AUC0-t compared with micro MBX-2982 (free base): equivalent amounts
Description: Two studies were conducted in order to compare the systemic exposure and pharmacokinetics (PK) of microcrystalline MBX-2982 and salt forms of MBX-2982 in fasted male Sprague Dawley (SD) rats following single oral gavage (PO) doses of 200 mg/kg. Four salt foms of MBX-2982 were investigate in the studies. The tested salts were HCl Form I, HCl salt Form II, mesylate salt and the tosylate salt.
Preparation of samples was performed by solvent precipitation of plasma proteins in a 1 mL/well 96-well plate. Standards were prepared by spiking 10 μL of blank plasma with 10 μL of standard solution (acetonitrile containing MBX-2982 at 0.01, 0.02, 0.05, 0.1, 0.2, 0.5, 1, 2, 5, 10, 20, 50 and 100 μg/mL) and 300 μL of 0.1% formic acid in acetonitrile containing 0.2 μg/mL internal standard. Plasma samples were prepared by adding 10 μL of plasma sample, 10 μL of acetonitrile, and 300 μL of 0.2 μg/mL internal standard in 0.1% formic acid in acetonitrile. After addition of the organic solvents, all samples were vortexed briefly and centrifuged at 3600 rpm for 10 minutes. Some of the samples were diluted 1.3 to 2-fold with blank plasma. An aliquot of the supernatant (25 μL) was transfer to a 1 mL/well 96-well plate and mixed with 200 μL water/ACN (50/50, v/v) and injected into the HPLC.
The suspensions for microcrystalline MBX-2982 (free base) and salt forms of MBX-2982 were prepared in 1% carboxymethylcellulose and 2% tween 80 in water (w/w/v).
Five groups of animals were given microcrystalline and salt forms suspension doses of MBX-2982 orally at 200 mg/kg, respectively. Food was withheld the night before dose and returned nine hours after dosing. Blood samples were collected at 0.25, 0.5, 1, 2, 4, 6, 9, 24, 30 and 48 h post dose. MBX-2982 plasma concentration from these samples was analyzed by a non-validated high performance liquid chromatography in conjunction with mass spectrometry (LC-MS/MS) method.
Plasma concentration-time data for individual animals were analyzed using WinNonlin software (Professional, version 5.0.1; Pharsight Corp.). A non-compartmental model (model 200) was used. Peak area ratios of MBX-2982 to internal standard and concentration were fitted to a quadratic equation (Calibration Curve) with 1/x weighting using a quadratic regression program in Analyst version 1.4.2 (Applied Biosystem Inc). The equations were then used to interpolate the concentrations of MBX-2982 in samples from peak area to internal standard ratio.
The following pharmacokinetic parameters were calculated: • 1) Cmax: Maximum (peak) plasma concentration • 2) Tmax: Time at which Cmax occurred • 3) t1/2: Terminal phase half-life • 4) AUC0-t: Area under the concentration-time curve from time 0 to last measurable concentration • 5) AUC0-inf: Area under the concentration-time curve from time 0 extrapolated to infinity

[2] = Overnight / elevated RH stress of the crystalline salts; format: physicochemical; details: overnight / elevated relative humidity stress
[3] = 0.5 h post dose, fasted male SD rats, PO 200 mg/kg, mean ± SD
[4] = 1 h post dose, fasted male SD rats, PO 200 mg/kg, mean ± SD
[5] = 2 h post dose, fasted male SD rats, PO 200 mg/kg, mean ± SD
[6] = 24 h post dose, fasted male SD rats, PO 200 mg/kg, mean ± SD
[7] = 30 h post dose, fasted male SD rats, PO 200 mg/kg, mean ± SD
[8] = 48 h post dose, fasted male SD rats, PO 200 mg/kg, mean ± SD
[9] = PO 200 mg/kg, listed as HCl form II, hydrochloride
[10] = fasted male SD rats, single PO dose 200 mg/kg, mean ± SD, hydrochloride
[11] = fasted male SD rats, single PO dose 200 mg/kg, mean ± SD

- Mean plasma concentration of MBX-2982 ([1]; 0.5 h post dose, fasted male SD rats, PO 200 mg/kg, mean ± SD, hydrochloride): 8060 ± 1610 ng/mL
- Mean plasma concentration of MBX-2982 ([1]; 1 h post dose, fasted male SD rats, PO 200 mg/kg, mean ± SD, hydrochloride): 16300 ± 2770 ng/mL
- Mean plasma concentration of MBX-2982 ([1]; 2 h post dose, fasted male SD rats, PO 200 mg/kg, mean ± SD, hydrochloride): 23700 ± 4220 ng/mL
- Mean plasma concentration of MBX-2982 ([1]; 4 h post dose, fasted male SD rats, PO 200 mg/kg, mean ± SD, hydrochloride): 29200 ± 3710 ng/mL
- Mean plasma concentration of MBX-2982 ([1]; 6 h post dose, fasted male SD rats, PO 200 mg/kg, mean ± SD, hydrochloride): 29100 ± 8130 ng/mL
- Mean plasma concentration of MBX-2982 ([1]; 9 h post dose, fasted male SD rats, PO 200 mg/kg, mean ± SD, hydrochloride): 23200 ± 5700 ng/mL
- Mean plasma concentration of MBX-2982 ([1]; 24 h post dose, fasted male SD rats, PO 200 mg/kg, mean ± SD, hydrochloride): 12020 ± 9330 ng/mL
- Mean plasma concentration of MBX-2982 ([1]; 24 h post dose, fasted male SD rats, PO 200 mg/kg, mean ± SD, listed as HCl form II, hydrochloride): 12020 ng/mL
- Fold difference in plasma concentration compared to micronized free-base form [1, 9]: 186 fold
- Mean plasma concentration of MBX-2982 ([1]; 30 h post dose, fasted male SD rats, PO 200 mg/kg, mean ± SD, hydrochloride): 14900 ± 13200 ng/mL
- Mean plasma concentration of MBX-2982 ([1]; 30 h post dose, fasted male SD rats, PO 200 mg/kg, mean ± SD, listed as HCl form II, hydrochloride): 14900 ng/mL
- Mean plasma concentration of MBX-2982 ([1]; 48 h post dose, fasted male SD rats, PO 200 mg/kg, mean ± SD, hydrochloride): 32.5 ng/mL
- AUC0-24 [1, 10]: 482 ± 69.4 µg·h/mL
- AUC0-inf [1, 10]: 469 µg·h/mL
- AUC(0-t) [1, 10]: 679 ± 208 µg·h/mL
- Cmax [1, 10]: 31800 ± 5050 ng/mL
- Tmax [1, 10]: 11.5 ± 12.4 h
- t1/2 [1, 10]: 2.09 h
- Increase of systemic drug exposure in AUC0-t compared with micro MBX-2982 (free base) [1, 9]: 2.9 fold
SMILES: CCc1cnc(N2CCC(c3nc(COc4ccc(-n5cnnn5)cc4)cs3)CC2)nc1.Cl [HCl Salt Form II, 5-ethyl-2-{4-[4-(4-tetrazol-1-yl-phenoxymethyl)-thiazol-2-yl]-piperidin-1-yl}-pyrimidine hydrochloride]

- Appearance of the material after RH stress [2]: turned tacky
SMILES: CCc1cnc(N2CCC(c3nc(COc4ccc(-n5cnnn5)cc4)cs3)CC2)nc1 [sulfate salt, 5-ethyl-2-{4-[4-(4-tetrazol-1-yl-phenoxymethyl)-thiazol-2-yl]-piperidin-1-yl}-pyrimidine]

- Appearance of the material after RH stress [2]: remained a free flowing powder
SMILES: CCc1cnc(N2CCC(c3nc(COc4ccc(-n5cnnn5)cc4)cs3)CC2)nc1 [esylate salt, 5-ethyl-2-{4-[4-(4-tetrazol-1-yl-phenoxymethyl)-thiazol-2-yl]-piperidin-1-yl}-pyrimidine]

- Appearance of the material after RH stress [2]: remained a free flowing powder
SMILES: CCc1cnc(N2CCC(c3nc(COc4ccc(-n5cnnn5)cc4)cs3)CC2)nc1 [camsylate salt, 5-ethyl-2-{4-[4-(4-tetrazol-1-yl-phenoxymethyl)-thiazol-2-yl]-piperidin-1-yl}-pyrimidine]

Further lines, the compound ahead of its results:

SMILES: CCc1cnc(N2CCC(c3nc(COc4ccc(-n5cnnn5)cc4)cs3)CC2)nc1 [MBX-2982, 5-ethyl-2-{4-[4-(4-tetrazol-1-yl-phenoxymethyl)-thiazol-2-yl]-piperidin-1-yl}-pyrimidine]
- Mean plasma concentration of MBX-2982 [1, 3]: 3890 ± 950 ng/mL
- Mean plasma concentration of MBX-2982 [1, 4]: 6700 ± 1270 ng/mL
- Mean plasma concentration of MBX-2982 [1, 5]: 11600 ± 1610 ng/mL
- Mean plasma concentration of MBX-2982 [1, 6]: 260 ng/mL and 260 ± 280 ng/mL
- Mean plasma concentration of MBX-2982 [1, 7]: 80 ng/mL and 80 ± 60 ng/mL
- Mean plasma concentration of MBX-2982 [1, 8]: 160 ± 300 ng/mL
- concentration at 4 h ([1]; male, Sprague-Dawley, rat, plasma, po, 4 h post dose, fasted male SD rats, PO 200 mg/kg, mean ± SD, read-out: Mean plasma concentration of MBX-2982): 15800 ± 3740 ng/mL
- concentration at 6 h ([1]; male, Sprague-Dawley, rat, plasma, po, 6 h post dose, fasted male SD rats, PO 200 mg/kg, mean ± SD, read-out: Mean plasma concentration of MBX-2982): 15900 ± 4940 ng/mL
- concentration at 9 h ([1]; male, Sprague-Dawley, rat, plasma, po, 9 h post dose, fasted male SD rats, PO 200 mg/kg, mean ± SD, read-out: Mean plasma concentration of MBX-2982): 15000 ± 5900 ng/mL
- half-life ([1]; male, Sprague-Dawley, rat, plasma, po, fasted male SD rats, single PO dose 200 mg/kg, mean ± SD): 3.53 ± 0.7 h
- AUC(0-t) ([1]; male, Sprague-Dawley, rat, plasma, po, fasted male SD rats, single PO dose 200 mg/kg, mean ± SD, read-out: AUC0-24): 233 ± 64.8 µg·h/mL
- AUC(0-t) ([1]; male, Sprague-Dawley, rat, plasma, po, fasted male SD rats, single PO dose 200 mg/kg, mean ± SD, read-out: AUC0-t): 236 ± 64.6 µg·h/mL
- Cmax ([1]; male, Sprague-Dawley, rat, plasma, po, fasted male SD rats, single PO dose 200 mg/kg, mean ± SD, read-out: Cmax): 17400 ± 4190 ng/mL
- Tmax ([1]; male, Sprague-Dawley, rat, plasma, po, fasted male SD rats, single PO dose 200 mg/kg, mean ± SD, read-out: Tmax): 5.88 ± 1.55 h

SMILES: CCc1cnc(N2CCC(c3nc(COc4ccc(-n5cnnn5)cc4)cs3)CC2)nc1 [besylate salt, 5-ethyl-2-{4-[4-(4-tetrazol-1-yl-phenoxymethyl)-thiazol-2-yl]-piperidin-1-yl}-pyrimidine]
- Appearance of the material after RH stress [2]: remained a free-flowing powder

SMILES: CCc1cnc(N2CCC(c3nc(COc4ccc(-n5cnnn5)cc4)cs3)CC2)nc1 [HBr salt, 5-ethyl-2-{4-[4-(4-tetrazol-1-yl-phenoxymethyl)-thiazol-2-yl]-piperidin-1-yl}-pyrimidine]
- Appearance of the material after RH stress [2]: remained a free flowing powder

SMILES: CCc1cnc(N2CCC(c3nc(COc4ccc(-n5cnnn5)cc4)cs3)CC2)nc1 [Mesylate Salt, 5-ethyl-2-{4-[4-(4-tetrazol-1-yl-phenoxymethyl)-thiazol-2-yl]-piperidin-1-yl}-pyrimidine]
- Mean plasma concentration of MBX-2982 [1, 3]: 8520 ± 975 ng/mL
- Mean plasma concentration of MBX-2982 [1, 4]: 12200 ± 839 ng/mL
- Mean plasma concentration of MBX-2982 [1, 5]: 18800 ± 904 ng/mL
- Mean plasma concentration of MBX-2982 ([1]; 4 h post dose, fasted male SD rats, PO 200 mg/kg, mean ± SD): 26700 ± 4390 ng/mL
- Mean plasma concentration of MBX-2982 ([1]; 6 h post dose, fasted male SD rats, PO 200 mg/kg, mean ± SD): 21800 ± 6480 ng/mL
- Mean plasma concentration of MBX-2982 ([1]; 9 h post dose, fasted male SD rats, PO 200 mg/kg, mean ± SD): 18000 ± 5180 ng/mL
- Mean plasma concentration of MBX-2982 [1, 6]: 476 ± 344 ng/mL
- Mean plasma concentration of MBX-2982 ([1]; 24 h post dose, fasted male SD rats, PO 200 mg/kg, mean ± SD, listed as mesylate): 476 ng/mL
- Fold difference in plasma concentration compared to micronized free-base form ([1]; PO 200 mg/kg): 7 fold
- Mean plasma concentration of MBX-2982 [1, 7]: 574 ± 641 ng/mL
- Mean plasma concentration of MBX-2982 ([1]; 30 h post dose, fasted male SD rats, PO 200 mg/kg, mean ± SD, listed as mesylate): 574 ng/mL
- Mean plasma concentration of MBX-2982 [1, 8]: 82 ± 82 ng/mL
- AUC0-24 [1, 11]: 314 ± 65.7 µg·h/mL
- AUC0-inf [1, 11]: 323 ± 62.0 µg·h/mL
- AUC(0-t) [1, 11]: 322 ± 63.6 µg·h/mL
- Cmax [1, 11]: 26700 ± 4460 ng/mL
- Tmax [1, 11]: 4.50 ± 1.00 h
- t1/2 [1, 11]: 4.11 ± 1.29 h
- Increase of systemic drug exposure in AUC0-t compared with micro MBX-2982 (free base) ([1]; PO 200 mg/kg): 1.4 fold
- Appearance of the material after RH stress [2]: remained a free flowing powder
